The values that follow come from patent US20250362286A1, “SCREENING MODELS AND METHODS OF CANCER TREATMENT” (The Regents of the University of California, priority 2022, published 2025).

For one test, the system named is SUM149. As to the kind of experiment: CD24 mRNA expression in 2D for 48h. Type of test: cell-based. As for the experimental part:
(§1) FIG. 3H depicts relative CD24 mRNA expression. CD24 expression was an early indicator of response to ISX9 in 2D across several TNBC cell lines. Treatment screening of several different TNBC cell lines with ISX9 in 2D for 48h yielded four responders, as determined by CD24 mRNA expression (FIG. 3H).

The next test concerns MDA-MB-468. As to the kind of experiment: CD24 mRNA expression in 2D for 48h. The class given is cell-based. As for the experimental part:
as §1

A further test has as its system MDA-MB-436. As to the kind of experiment: CD24 mRNA expression in 2D for 48h. The class given is cell-based. How it is done: as §1
The next test relates to BT-549. Kind of test: CD24 mRNA expression in 2D for 48h. The class given is cell-based. As for the experimental part:
as §1

For the next test, the system named is MDAs. Kind of test: flow cytometry of CDH1+ MDA cells in 2D and 3D Collagen I densities. Type of test: cell-based. How it is done: To determine whether induction of MET was specific to the HD Collagen I condition or generally applicable to all ISX9-treated cells in a 3D Collagen condition, CDH1^+ cells in 2D, and multiple 3D Collagen I densities were flow-sorted (1 mg/mL, 2.5 mg/mL, and 6 mg/mL Col1) (FIG. 4F, FIG. 4G).) FIG. 4F depicts fluorescence profiles of CDH1 in MDAs treated with vehicle or ISX9 for 7 days in 2D TC, LD Col1, MD Col1, or HD Col1 conditions. FIG. 4G depicts a flow cytometry analysis of CDH1^+ MDA cells treated with vehicle or ISX9 in 2D TC, LD Col1, MD Col1, or HD Col1.
In general terms: Flow cytometry measures light scatter and fluorescence of single cells or particles in a stream.

The test system of test [1] is Notch-activated epicardium-derived cells (NECs). Conditions: after myocardial infarction; cited from earlier work.
A further test has as its system MDA-MB-231. As to the kind of experiment: B-Catenin localization to cell-cell junctions. The class given is cell-based. The following applies: 48 hours, 2D-treated cells.
Test [2] deals with MDAs and MDA-231-BrM2 (TNBC), Py8119 (Breast Cancer), HT-1080 (fibrosarcoma), Sk-HEP-1 (liver cancer), and R40P (PDAC) cells. As to the kind of experiment: phenotype screen for anti-invasive activity in the HD Col1 model system. The class given is cell-based. The following applies: HD Col1, 7 days of culture; all six cell lines. From the text:
In this example, it was explored whether isoxazole derivatives could similarly induce differentiation of CSCs occupying the clinically relevant notch-activated state conferred by the HD Col1 model system of Example 1 (Table 1, FIG. 1). […] FIG. 2 includes brightfield microscopy images of cancer cell lines at 7 days of culture in HD Col1 treated with vehicle or ISX9 (scale bar=250 μm).

Test [3] deals with PA-14-13 PDOs. As to the kind of experiment: FACS analysis of CD44+/CD24- CSCs and CDH1+ cells in PDOs. Type of test: cell-based. From the text: These figures depict flow cytometry analysis of CD44*/CD24 CSC in (FIG. 8F and FIG. 8G) PIM025 PDOs and (FIG. 8H and FIG. 8I) PA-14-13 PDOs treated with vehicle or ISX9.
FIG. 8J and FIG. 8K depict a flow cytometry analysis of CDH1^+ cells in PIM025 PDOs treated with vehicle or ISX9. FIG. 8L and FIG. 8M depict a flow cytometry analysis of CDH1^+ cells in PA-14-13 PDOs treated with vehicle or ISX9.

The test system of another test is PIM025 PDOs. As to the kind of experiment: RT-qPCR of CD24 and CDH1 expression in PDOs. Conditions: 20 μM, 48 h. The class given is cell-based. As for the experimental part: (§2) As a first step towards assessing the efficacy of ISX9 to differentiate patient-derived tumor cells, PDOs from the PIM025 (“hybrid epithelial” EMT status) and PA14-13 (“hybrid mesenchymal” EMT status) TNBC PDX tumors were produced and treated with 20 μM ISX9 for 48 h. […] FIG. 8D and FIG. 8E depict RT-qPCR of CD24 and CDH1 expression in PIM025 PDOs and PA-14-13 PDOs, respectively.
For orientation: In qPCR the cycle at which signal appears reflects the starting amount.

Test [4] deals with PA-14-13 PDOs. As to the kind of experiment: RT-qPCR of CD24 and CDH1 expression in PDOs. Conditions: 20 μM, 48 h. Type of test: cell-based. How it is done: as §2
A further test relates to MDA-MB-231s. Kind of test: CD24 mRNA expression in 2D (differentiation screening). Type of test: cell-based. As for the experimental part:
as §1
These analogs were screened for their potential to differentiate MDA-MB-231s, yielding at least one new hit, CR-1 (˜98% similarity), which induced a ˜6-fold upregulation of CD24 at a concentration of 200 μM at 48h in 2D (FIG. 6).

Another test deals with Notch pathway genes. Kind of test: RT-qPCR gene expression analysis of Notch target genes in MDAs. The class given is cell-based. The following applies: 24h in HD Col1, vs vehicle. From the text:
Also assessed was how the Notch pathway responded to ISX9 treatment. […] FIG. 3A depicts the results of a RT-qPCR gene expression analysis of Notch target genes in vehicle and Isx9 treated MDAs.

On to `O=C(NC1CC1)c1cc(-c2cccs2)on1` [ISX9, Isoxazole 9], for which the “CD24 mRNA expression (FC)” value in the test on SUM149 is about 2.7; in the test on MDA-MB-468, about 0.6; in the test with MDA-MB-436 it was about 7.1; in the test with BT-549, about 12.6; in the test with MDA-MB-231s (48h), about 31.6. For the same molecule, in the test on MDAs (1 mg/mL and 2.5 mg/mL Col1, 7 days), the “CDH1+ induction” value is on record as “unable to re-express CDH1^+to similar levels”. Also, the “effect on CDH1+ cells” value in the test on MDAs (2D, 7 days) is listed as “small effect”. In the test with MDAs (HD (6 mg/mL) Col1, 7 days), the “population of CDH1+ cells” value is recorded as “highest population of CDH1^+ cells”. The “fibrosis and ventricular functional decline after MI” value in [1] is on record as “failed to mitigate fibrosis or avert ventricular functional decline after MI”. In addition, the “B-Catenin localization to cell-cell junctions” value in the test with MDA-MB-231 is listed as “significant increase in B-Catenin localization”. Further, in [2], the invasive capability entry is “significant abrogation of the invasive capability”. Further, in the test on PA-14-13 PDOs [3] (after 6 days of treatment), the “CD44+/CD24- CSCs (FACS)” value is listed as “reduction in CD44+/CD24− CSCs”. For the same molecule, the “CDH1+ cells (FACS)” value with PA-14-13 PDOs [3] (vs vehicle) was “enrichment in CDH1^+ cells”. The “CDH1 mRNA expression” value in the test with PIM025 PDOs is “slight increase”. In addition, the “upregulation of CD24 mRNA transcription” value in the test on PIM025 PDOs is 1.5 fold. Further, the “upregulation of CD24” value in the test on PA-14-13 PDOs [4] is on record as ~1,080 fold. Besides, in the test on PA-14-13 PDOs [4], the “upregulation of CDH1” value is on record as about 41 fold. The “CD24 mRNA dose-response” value in the test on MDA-MB-231s (concentration range 1-40 μM) is given as “upregulation of CD24 mRNA”. Moreover, the “expression of Notch pathway genes” value with Notch pathway genes is listed as “significantly increased”.
